Test results: patent US10473670B2 (University of Kentucky Research Foundation, priority 2016, dated 2019)

How the values were obtained:
AMPK [1] = assay: Western blot of p-AMPK in FHs 74 Int cells; assay type: cell-based, human; details: FHs 74 Int cells; AICAR 1 mM 2 h, oleate 0.1 mM 1 h
Method: G. Human small intestinal cells (FHs74Int) (left panel) and RIE-1 cells (right panel) were treated with the indicated concentrations of oleate for 1 h and lysates were analyzed by western blotting. […] All data are mean+/−SD. Experiments in vitro were at least repeated three times.

FHs74Int cells = assay: In vitro FA absorption (BODIPY FL C16) in FHs74Int cells; assay type: cell-based, human; details: AICAR 1 mM 3 h, BODIPY FL C16 15 min
Method: All data are mean+/−SD. Experiments in vitro were at least repeated three times.
For in vitro FA absorption or lipid accumulation studies, FHs74Int and RIE-1 cells were incubated with either bovine serum albumin (BSA) (Sigma-Aldrich) or BSA-conjugated BODIPY® FL C16 (4,4-Difluoro-5,7-Dimethyl-4-Bora-3a,4a-Diaza-s-Indacene-3-Hexadecanoic Acid) (Life Technologies) for 15 min. BSA-conjugated oleate sodium was also used to treat cells for 1 h; cells were then stained with BODIPY® 493/503 (4,4-Difluoro-1,3,5,7,8-Pentamethyl-4-Bora-3a,4a-Diaza-s-Indacene) (Life Technologies). Images were observed under an FV1000 Olympus confocal microscope with a ×60, 1.35-numerical aperture oil objective (Olympus, Tokyo, Japan). Images were analyzed with Olympus FV10-ASW2.1 software. To quantify green intensity, 3 images were taken at consistent conditions and 10 cells from each image were analyzed using the area tool. […] Cells were collected, lysed and triglyceride content was measured by Triglyceride Determination Kit (Sigma-Aldrich). All experiments were carried in serum-free medium and fatty acid-free BSA was used at 0.1%.

BON cells = assay: NT secretion from BON cells (NT EIA); assay type: cell-based, human
Method: FIGS. 14A-C show graphs and images illustrating that FFA activates AMPK signaling and increases NT secretion. A. Plasma NT of male C57BL/6 mice (5-mo-old, n=5) 1 h after olive oil (OO) oral gavage. *p<0.05 vs. NC; n=5. B. NT EIA (upper panels) and western blotting (lower panels) on BON cells treated with or without OA for 1 h. C. NT EIA (upper panels) and western blotting (lower panels) on QGP-1 cells treated with or without OA for 1 h. *p<0.05 vs. control; n=6. All data are mean+/-SD. FIGS. 16A-D show graphs and images illustrating Cross-talk of AMPK and mTORC1 signaling. A. Diagram of cross-talk of AMPK and mTORC1 signaling. B. Western blot analysis of BON cells treated with or without AICAR (left panel) or 1 mM AICAR and CC (10 μM) (right panel) for 3 h. C. NT EIA (upper panel) and western blotting (lower panel) on BON cells expressing control vector and myc-raptor […]/[…] treated with AICAR (1 mM) for 3 h. D. NT EIA (upper panel) and western blotting (lower panel) on BON cells expressing control vector and NTC and TSC2 siRNA treated with AICAR (1 mM) for 3 h. *p<0.05 vs. control in vector, †p<0.05 vs. AICAR in vector (C); *p<0.05 vs. control in NTC siRNA, †p<0.05 vs. control in NTC siRNA, ‡ p<0.05 vs. AICAR in NTC siRNA (D). n=6. All data are mean+/-SD. […]

[2] = system: mTORC1 and ERK1/2 signaling; assay: Western blot of p-S6K1 and p-ERK1/2 in BON cells; assay type: cell-based, human; details: AICAR 3 h
Method: FIGS. 16A-D show graphs and images illustrating Cross-talk of AMPK and mTORC1 signaling. A. Diagram of cross-talk of AMPK and mTORC1 signaling. B. Western blot analysis of BON cells treated with or without AICAR (left panel) or 1 mM AICAR and CC (10 μM) (right panel) for 3 h. C. NT EIA (upper panel) and western blotting (lower panel) on BON cells expressing control vector and myc-raptor S722A/S792A treated with AICAR (1 mM) for 3 h. D. NT EIA (upper panel) and western blotting (lower panel) on BON cells expressing control vector and NTC and TSC2 siRNA treated with AICAR (1 mM) for 3 h. *p<0.05 vs. control in vector, †p<0.05 vs. AICAR in vector (C); *p<0.05 vs. control in NTC siRNA, †p<0.05 vs. control in NTC siRNA, ‡ p<0.05 vs. AICAR in NTC siRNA (D). n=6. All data are mean+/−SD.
AMPK activation inhibits mTORC1 through raptor, a component of mTORC1, or TSC2, a negative regulator of mTORC1 signaling. […] Moreover, a stable BON overexpression cell line was generated with a mutant raptor vector in which both Ser722 and Ser792 (AMPK phosphorylation sites) are replaced by alanine. […] Together, these findings further indicate the interaction of AMPK, mTORC1 and ERK signaling in the regulation of NT secretion.

QGP-1 cells = assay: NT secretion from QGP-1 cells (NT EIA); assay type: cell-based, human; details: OA 1 h
Method: FIGS. 14A-C show graphs and images illustrating that FFA activates AMPK signaling and increases NT secretion. A. Plasma NT of male C57BL/6 mice (5-mo-old, n=5) 1 h after olive oil (OO) oral gavage. *p<0.05 vs. NC; n=5. B. NT EIA (upper panels) and western blotting (lower panels) on BON cells treated with or without OA for 1 h. C. NT EIA (upper panels) and western blotting (lower panels) on QGP-1 cells treated with or without OA for 1 h. *p<0.05 vs. control; n=6. All data are mean+/−SD. Fifty μl of media were used to measure NT levels using NT EIA Kit from Phoenix Pharmaceuticals (Burlingame, Calif.) as described previously^30-33.

AMPK [3] = assay: Western blot of p-AMPK and p-ACC in BON cells; assay type: cell-based, human; details: OA 1 h
Method: (§1) FIGS. 14A-C show graphs and images illustrating that FFA activates AMPK signaling and increases NT secretion. A. Plasma NT of male C57BL/6 mice (5-mo-old, n=5) 1 h after olive oil (OO) oral gavage. *p<0.05 vs. NC; n=5. B. NT EIA (upper panels) and western blotting (lower panels) on BON cells treated with or without OA for 1 h. C. NT EIA (upper panels) and western blotting (lower panels) on QGP-1 cells treated with or without OA for 1 h. *p<0.05 vs. control; n=6. All data are mean+/−SD. Tissues and cells were lysed with lysis buffer (Cell Signaling Technology), and equal amounts of protein were resolved on 4-12% NuPAGE BisTris gels (Life Technologies) and electrophoretically transferred to polyvinylidene difluoride (PVDF) membranes; the membranes were incubated with primary antibodies overnight at 4° C. followed by secondary antibodies conjugated with horseradish peroxidase. Membranes were developed using chemiluminescence (ECL) Western Blotting System from GE Healthcare Life Science (Piscataway, N.J.) and Thermo Scientific (Waltham, Mass.).

AMPK [4] = assay: Western blot of p-AMPK and p-ACC in QGP-1 cells; assay type: cell-based, human; details: OA 1 h
Method: as §1

STC-1 cells = assay: NT release from STC-1 cells (NT EIA); assay type: cell-based, mouse; details: OA 0.25 mM, phorbol myristate acetate 100 nM
From the text: (§2) FIGS. 15A-B show graphs and images illustrating that FFAR1 and FFAR4 agonists increase AMPK activity. A. NT IF (left panel), NT EIA (middle panel, *p<0.05 vs. control) and western blotting (right panel) of STC-1 cells. B. Real-time PCR. GAPDH was used as the internal control (BON cell expression was arbitrarily set at 1). All data are mean+/−SD.
(§3) FFAR1 (previously known as GPR40) and FFAR4 (previously known as GPR120) are medium- to long-chain FFA G-protein-coupled receptors that have been implicated in the regulation of energy homeostasis and hormone secretion.

AMPK [5] = assay: Western blot of p-AMPK in STC-1 cells; assay type: cell-based, mouse; details: agonists 1 μM, 90 min, or OA
From the text: as §2, §3

SMILES	oleate-stimulated p-AMPK (AMPK [1])	FA absorption (FHs74Int cells)	NT secretion (BON cells; AICAR 1 mM 3 h)	expression of p-S6K1 [2]	p-ERK1/2 [2]	NT secretion (BON cells; OA 1 h)	NT secretion (QGP-1 cells)	phosphorylation of AMPK (p-AMPK) (AMPK [3])	phosphorylation of acetyl-CoA carboxylase (p-ACC) (AMPK [3])	phosphorylation of AMPK (p-AMPK) (AMPK [4])	phosphorylation of acetyl-CoA carboxylase (p-ACC) (AMPK [4])	NT release (STC-1 cells)	p-AMPK expression (AMPK [5])
NC(=O)c1ncn([C@@H]2O[C@H](CO)[C@@H](O)[C@H]2O)c1N [AICAR, 5-aminoimidazole-4-carboxamide-1-β-D-ribofuranoside]	further increased oleate-stimulated p-AMPK	concomitantly decreased FA absorption	stimulated NT secretion	decreased expression of p-S6K1	increased p-ERK1/2								
CCCCCCCC/C=C\CCCCCCCC(=O)O [OA, oleic acid]						stimulated NT secretion	stimulated NT secretion	increased phosphorylation	increased phosphorylation	increased phosphorylation	increased phosphorylation	stimulated NT release	increased p-AMPK expression
